Consider two compounds from patent US9267945B2, “Diagnosis of multiple sclerosis” (Yeda Research and Development Co. Ltd., priority 2008, dated 2016).

One assay concerns EAE in C57BL/6 mice. The experiment in a line: EAE induced with MOG35-55. It is filed as in vivo. The protocol:
EAE was induced in C57BL/6 mice with MOG35-55, and 15-ketocholestene, 15-ketocholestane and 15α-hydroxycholestene were administered at days 0, 4, 7 and 10 after EAE induction (10 μg/mice). AIQ was administered intraperitoneally (60 μg/mice) on daily basis. The course of EAE in these mice is shown as the mean EAE score+s.e.m. (MOG35-55 n=22, MOG35-55+oxChol n=24, MOG35-55+oxChol+AIQ n=18).
Spinal cords were taken on day 19 and stained with hematoxylin and eosin, luxol fast blue or silver stain to quantify the cellular infiltrate, demyelination and axonal loss, respectively. Each column represents the mean±SEM resulting from the analysis of at least 8 sections. Administration of oxChol enhanced EAE as measured clinically (FIG. 4A, P<0.0001, two-way ANOVA), and augmented inflammatory infiltrates (FIG. 4B; P<0.05, one-way ANOVA), demyelination (FIG. 4C; P<0.01, one-way ANOVA) and axonal loss (FIG. 4D; P<0.001, one-way ANOVA); these effects were inhibited by treatment with AIQ (P<0.001, one-way ANOVA).

Assay [1] relates to T cell responses to MOG35-55. The experiment in a line: T cell responses to MOG35-55 in EAE mice. It is filed as cell-based. The following applies: EAE mice given oxChol and AIQ. The protocol:
Further investigations were performed to determine whether the effect of oxChol on EAE was mediated by PARP.

Assay [2] relates to IgG reactivity to PLP261-277. The experiment in a line: Inhibition of RRMS serum IgG reactivity on antigen microarray by pre-incubation with free peptide. It is filed as binding, human. The following applies: RRMS sera 1:10 dilution, excess unbound peptide, FIG. 1C. As for the experimental part: RRMS or healthy controls (HC) serum samples were hybridized on antigen microarrays at different concentrations and the mean IgG (FIG. 1A) and IgM (FIG. 1B) reactivity to the CNS, HSP or lipid antigens spotted on the microarrays were measured. Results are presented as mean±SEM of the IgG or IgM reactivity for CNS, HSP or lipid antigens at each dilution. *P<0.05, **P<0.01 and ***P<0.001 (two-way ANOVA) when compared to HC samples tested at the same dilution.
The chips were washed with PBS, blocked for 1 h at 37° C. with 1% BSA, and incubated for 2 hours at 37° C. with a 1:10 dilution of the test serum in blocking buffer under a coverslip in a humid environment. The arrays were then washed and incubated for 45 min at 37° C. with a 1:500 dilution mixture of goat anti-human IgG Cy3-conjugated antibody and a goat anti-human IgM conjugated to Cy5, (both purchased from Jackson ImmunoResearch, West Grove, Pa. The arrays were scanned with a ScanArray 4000× scanner (GSI Luminomics, Billerica, Mass., USA) and the IgM and IgG results were recorded separately. The results were recorded as TIFF files.

As for `Nc1cccc2c(=O)[nH]ccc12` [AIQ, 5-Aminoisoquinolinone], in the assay on EAE in C57BL/6 mice (day 19, hematoxylin and eosin, FIG. 4B), the “inflammatory infiltrates in spinal cord” value is on record as “inhibited”. Further, the “demyelination in spinal cord” value in the assay on EAE in C57BL/6 mice (day 19, luxol fast blue, FIG. 4C) was “inhibited”. Besides, the “axonal loss in spinal cord” value in the assay on EAE in C57BL/6 mice (day 19, silver stain, FIG. 4D) is “inhibited”. Also, the “EAE measured clinically (mean EAE score)” value in the assay with EAE in C57BL/6 mice (oxChol 10 μg/mice days 0, 4, 7, 10, AIQ 60 μg/mice i.p. daily, FIG. 4A, P<0.0001) was “abrogated the worsening of EAE”. In addition, the “T cell responses to MOG35-55 as measured by cytokines (IFN-γ and IL-17) or proliferation” value in assay [1] is recorded as “did not affect”.

As for “PLP261-277: proteolipid protein peptide 261-277, used unbound as competitor (ATYNFAVLKLMGRGTKF)”, the “reactivity to PLP261-277 on the antigen array after pre-incubation of the serum with peptide” value in assay [2] is on record as “inhibited”.
